Experiments:
[1] = tested on: B cell activation in mice whole blood (BTK target); assay: In vivo inhibitory effect on BTK target (anti-IgD antibody-induced B cell activation in mice whole blood); design: species or system mouse
Procedure: Objects: B cells in mice whole blood were induced and activated by the anti-IgD antibody, and the inhibitory effect of the compound of the present invention on B cell activation in vivo was studied, so as to determine the inhibitory effect of the compound of the present invention on the BTK target in vivo.
Methods: C57BL/6 mice (female, 18-20 g, purchased from Shanghai Lingchang Biotechnology Co., Ltd.) were grouped according to Table 2.
The animals of each group were administered, then were placed in CO2 for anesthesia at designated time points, blood samples were taken from rats via retro-orbital bleeding, and heparin was used for anticoagulation; 90 μL of whole blood was taken from mice of each group, and added to a 96 well culture plate, and anti-mouse IgD antibody (BIO-RAD, Cat #MCA4693) was added to each well to a final concentration of 0.01 μg/μL (respectively for the each drug-treated group and anti-IgD antibody-inducted vehicle group); in addition, 90 μL of whole blood of mice in the vehicle group was taken and added to the 96-well culture plate, and PBS (phosphate buffer, GIBCO, Cat #C20012500BT) was added to each well to a final concentration of 0.01 μg/μL (namely, the vehicle control group); Each group was mixed well and incubated in a 37° C./5% CO2 incubator for 4 hours. In addition, the blood of mice in the drug-treated group was centrifuged to separate plasma for blood concentration analysis.
B cell activation ratio=percentage of CD69^+CD19^+ double positive B cells/percentage of CD19^+ single positive B cells
All data are represented by mean±standard error. For the comparison between each drug-treated group and the anti-IgD antibody-induced vehicle group, p value was calculated by Graphpad Prism using one-way ANOVA analysis of variance and Dunnett's test, and for the comparison between each drug-treated group, p value was calculated by using unpaired t test.

[2] = biological target: phosphorylated BTK in Ramos cells (Homo sapiens (Human), UniProt Q06187); assay: Determination of phosphorylated BTK in Ramos cells (BTK phospho-Y223 HTRF); assay type: cell-based
Procedure: Determination of Phosphorylated BTK in Ramos Cells
(§1) 1. Reagents and Materials
• Ramos cells: Ramos cells were purchased from American Standard Biological Collection Center ATCC Cell Bank, PRMI 1640 medium containing L-glutamine, 1.5 g/L of sodium bicarbonate, 2.383 g/L of HEPES solution, 0.11 g/L of sodium pyruvate and 4.5 g/L of glucose was used, added 10% fetal bovine serum FBS, and placed in a 5% C02, 37° C. cell incubator for normal culture; • PRMI 1640 medium: GIBCO, Cat #A10491-01; • Fetal bovine serum (FBS): GIBCO, Cat #100100-147; • Hank's balanced salt solution (HBSS): GIBCO, Cat #14025-092; • Immunoglobulin M (IgM): Jackson Immuno, Cat #109-006-129; • 3% hydrogen peroxide (3% H2O2): Sigma, Cat #88597-100 ML-F; • Phosphorylated BTK HTRF detection kit (BTK phospho-Y223 HTRF kit): Cisbio, Cat #63ADK017PEH; • Microwell plate reader: Envision, Perkin Elmer; • 384-well plate CulturPlate™384: Perkin Elmer, Cat #6007680 • 96-well plate: Corning, Cat #3799. 2. Methods
Ramos cells were starved in PRMI 1640 medium with 1% FBS for 2 hours. The starved Ramos cells were diluted with Hank's balanced salt solution to 5.0×10^6 cells/ml, seeded in a 96-well plate with 20 μL/well (1.0×10^5 cells/well), and cultured in a 5% CO2, 37° C. cell incubator. […]
The 384 well plate incubated overnight in the constant temperature incubator was taken out to detect the luminescence signal using the Envision microwell plate reader at the […]. The reading value at 665 nm/615 nm of each well multiplied by 104 was used as the signal value of each well.
The average signal value of the wells supplemented with the mixed solution of human immunoglobulin M (final concentration was 10 μg/mL) and hydrogen peroxide (final concentration was 3.3 mM) without the test compound was regarded as the high value, and the average signal value of the wells without immunoglobulin M stimulation and without the test compound was regarded as the low value. According to the signal value in each well, the inhibition ratio (%) of each concentration of compounds was calculated, and the 205 model in XL-Fit 5.3 software (ID Business Solutions Limited) was used to obtain an IC50 value. […]

BTK recombinant protein = BTK recombinant protein (Homo sapiens (Human), UniProt Q06187); assay: Determination of biochemical BTK (Z'-LYTE kinase assay)
Description: Example 2 Determination of Biochemical BTK
as §1
• BTK recombinant protein: Invitrogen, Cat #PV3363; • Z′-LYTE® kinase test kit-tyrosine 1 peptide: Invitrogen, Cat #PV3190; • 384-well low-flange black flat-bottomed polystyrene NBS microplate, no lid, no sterilization: Corning, Cat #3575; • 96-well polystyrene conical-bottomed MicroWell™ plate, sealed with a lid: Thermo Scientific™ Nunc™, Cat #277143; • Envision multi-mode plate reader: PerkinElmer; • Mixmate® shaker: Eppendorf; • TS-2102 shaking incubator: TENSUC; 2. Methods
Z′-LYTE® biochemical assay employs a fluorescence resonance energy transfer (FRET)-based, coupled-enzyme format and is based on the differential sensitivity of phosphorylated and non-phosphorylated peptides to proteolytic cleavage. Both ends of the short peptide substrate are labeled with two fluorescent groups to form a FRET paired combination. In the primary reaction (the Kinase Reaction), the kinase transfers the γ-phosphate of ATP to a single […] residue on the short peptide substrate. In the secondary reaction (the development reaction), the non-phosphorylated short peptides were recognized and cleaved by a site-specific protease (the development reagent). Phosphorylated short peptides can resist such cleavage. Cleavage of short peptides can disrupt the donor (such as coumarin) and receptor fluorophores (fluorescein) on the short peptides, while the phosphorylated short peptides can maintain FRET. The calculation method of the ratio is as follows, and the ratio of the respective emission signals generated by the donor fluorophores emitted (after excitation at 400 nm) to the receptors is calculated. Emission signal ratio=emitted light by coumarin (445 nm)/emitted light by fluorescein (520 nm). If the FRET short peptide is phosphorylated (such as no kinase inhibitor), the emitted light ratio will remain in a lower level. If the FRET short peptide is non-phosphorylated (such as kinase inhibitor), the emitted light ratio will be in a higher level. In this way, the inhibitory effects of different compound inhibitors on BTK kinase activity would be distinguished.
The experiment were carried out according to the instructions of the Z′-LYTE® kinase test kit-tyrosine 1 peptide. Reagent preparation: 1.33× kinase buffer: 5× kinase buffer was diluted with water to 1.33× kinase buffer; an enzyme solution: the kinase was dissolved in 1.33× kinase buffer with the final working concentration being 3.32 nM; a short peptide solution: a short peptide stock solution (1 mM dissolved in DMSO) was dissolved in 1.33× kinase buffer with the final working concentration being 2 μM; Z′-LYTE Tyr01 phosphorylated short peptide solution, 0.6 μl of stock solution (1 mM dissolved in DMSO) was dissolved in 149.4 μl of 1.33× kinase buffer; an ATP solution: an ATP stock solution (10 mM aqueous solution) was dissolved in 1.33× kinase buffer with the final working concentration being 32 μM; a color-developing solution: color-developing solution B was dissolved in color-developing buffer with the final working concentration being 1× color-developing solution; 4× compound preparation: the compound was diluted in 3-fold gradient concentration to finally obtain 4% DMSO aqueous solution containing different concentrations of the compound, with the final working concentration being 3000, 1000, 333.33, 111.11, 37.04, 12.35, 4.12, 1.37 nM, 8 concentration points in total.
Specific steps of the experiment: In the experiment, there were three control groups, each with 8 replicate wells, which were C1 100% inhibition group (no ATP), C2 0% inhibition group (with ATP), and C3 100% phosphorylation group, respectively. 2.5 μl of serially diluted compound was added to each well of a 384-well plate, with double replicate wells, and 4% DMSO solution was added to wells C1, C2, and C3. […]

Chain of phosphorylated BTK in Ramos cells (Q06187 whole entry): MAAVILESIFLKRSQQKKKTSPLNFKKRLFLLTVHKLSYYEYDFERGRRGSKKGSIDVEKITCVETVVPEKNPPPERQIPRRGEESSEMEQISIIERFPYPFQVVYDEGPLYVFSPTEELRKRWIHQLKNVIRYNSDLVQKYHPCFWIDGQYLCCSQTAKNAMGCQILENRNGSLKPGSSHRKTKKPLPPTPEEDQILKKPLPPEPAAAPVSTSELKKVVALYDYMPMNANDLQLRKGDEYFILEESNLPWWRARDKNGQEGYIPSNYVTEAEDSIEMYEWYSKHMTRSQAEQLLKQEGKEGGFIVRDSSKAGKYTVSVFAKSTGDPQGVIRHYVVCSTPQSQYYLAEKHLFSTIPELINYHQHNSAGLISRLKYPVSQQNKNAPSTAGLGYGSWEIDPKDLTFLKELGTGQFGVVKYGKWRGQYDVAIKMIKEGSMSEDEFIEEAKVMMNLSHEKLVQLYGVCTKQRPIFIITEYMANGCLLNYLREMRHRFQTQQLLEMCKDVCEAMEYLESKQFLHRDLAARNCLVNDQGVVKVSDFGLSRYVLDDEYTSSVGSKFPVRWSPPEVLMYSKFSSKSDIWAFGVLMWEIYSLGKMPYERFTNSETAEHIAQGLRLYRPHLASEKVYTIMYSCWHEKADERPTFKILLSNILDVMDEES
Chain of BTK recombinant protein (Q06187 whole entry): as above

Cn1cc(-c2ccnc(-n3ccn4c5c(c(F)c4c3=O)CCCC5)c2CO)cc(Nc2cc3n(n2)CCOC3)c1=O [compound 176]
B cell activation ratio (the proportion of activated B cells to total B cells) ([1]; 5 mg/kg oral single, 16 h): 13.9
Inhibition ratio (%) ([1]; 5 mg/kg oral single, 16 h): 48%
inhibition ratio on B cell activation ([1]; 5 mg/kg, after 16 hours of administration, anti-IgD antibody-induced, mice whole blood): 48%

2-(3′-(hydroxymethyl)-5-((5-(2-methoxyethyl)-4-methyl-4,5,6,7-tetrahydropyrazolo[1,5-α]pyrazin-2-yl)amido)-1-methyl-6-oxo-1,6-dihydro-[3,4′-bispyridin]-2′-yl)-7,7-dimethyl-7,8-dihydro-2H-cyclopenta[4,5]pyrrolo[1,2-d][1,2,4]triazin-1(6H)-one optically pure enantiomer [Compound 120]
IC50 [2]: 5 nM
IC50 (BTK recombinant protein): 8 nM

From patent US12070457B2, “Substituted pyridines, pyridazines, pyrimidines, and 1,2,3-triazines as bruton's tyrosine kinase inhibitors” (HUTCHISON MEDIPHARMA LIMITED, priority 2020, dated 2024)
